EP0476658B1, “1-Phenyl-3-phenyl-2-propyne-1-ones” (MERRELL DOW PHARMACEUTICALS INC., priority 1990, dated 1992)
Each block holds one molecule with its values, some of them ahead of it.

Experiments:
[1] = system: Rat PMNL; assay: Measurement of intracellular calcium (Fura-2) in fMLP-stimulated PMNL; format: cell-based; settings: preincubation of PMNL with compound 15 minutes at 37°C, fMLP stimulus; second wave = influx of extracellular calcium
Description: (§1) Rat PMNL were obtained from exudates resulting from peritoneal injection of 6 mL of 8% sodium caseinate. Eighteen hours after injection rats were killed by carbon dioxide inhalation and the peritoneal cavity lavaged with Hank's balanced salt solution (HBSS). After concentration of the PMNL by centrifugation, contaminating erythrocytes were removed by hypotonic lysis. The PMNL were then washed twice by centrifugation (400 x g for 10 minutes) and resuspended in HBSS. Cell viability was greater than 90% by Trypan Blue exclusion and greater than 90% of the cells were PMNL by Wright-Giemsa stain.
Intracellular calcium levels were obtained using Fura-2 as fluorescent indicator (Grynkiewicz et al., 1985). Fura-2 was loaded into PMNL as the acetoxymethyl ester (Fura-2/AM) using the method of Korchak et al., (1988). Specifically, 1 X 10⁸ PMNL/mL were incubated in HBSS with 10 µM Fura-2/AM for 10 minutes at 37°C. The cells suspension was then diluted ten fold with HBSS and further incubated for another 20 minutes. The cells were then centrifuged (400 x g for 8 minutes at 25°C) and the PMNL (1 x 10⁷ cells/mL) resuspended in HBSS containing 1% bovine serum albumin. Cells were stored at room temperature and used within 3 hours.
Intracellular calcium level determinations were made using a dual wavelength spectrofluorometer (Photon Technology International, New Brunswick, NJ). […]

[2] = system: Rat PMNL; assay: Myeloperoxidase (MPO) release from stimulated PMNL; format: cell-based; settings: fMLP (with cytochalasin B), opsonized zymosan or ionomycin stimulation
Description: as §1
MPO release was determined using the MPO catalyzed oxidation of O-dianisidine. The experiments were carried out in 96-well microtiter plates (Webster and Henson, 1978). In each well, 50 microliter (µl) aliquots of a PMNL suspension (2 x 10⁷ cells/mL in HBSS) were incubated with 50 µl of HBSS containing vehicle (0.3% DMSO) or inhibitor for 30 minutes at 37°C. The final DMSO concentration never exceeded 0.3% and was constant throughout each experiment. […] The stimuli were added in 50 µl HBSS which also contained the compounds or vehicle, as appropriate, to avoid changing the inhibitor concentration. Cell activation was terminated by centrifugation of the plates at 600 x g for 5 minutes at 22°C. […] Absorbances of the samples were measured at 450 nm. […]

[3] = system: Carrageenin-Induced Rat Paw Edema; assay: Carrageenin-induced rat paw edema; format: in vivo; settings: 75 mg/Kg i.p. one hour prior to carrageenin; paw volume three hours after; male Sprague Dawley rats
Description: Charles River male Sprague Dawley rats weighing 90 to 100 grams were used. Inflammation of the left hind paw was induced by a 1% carrageenin solution (0.05 cc), injected into the plantar surface of the paw. The contralateral paw was injected with an equal volume of saline. Drugs were administered 75 mg/Kg i.p. (1 cc/100 grams) one hour prior to paw injection. Three hours following the carrageenin injection the difference in volume of the control and inflamed paw was measured. Each paw was immersed in a well of mercury and the volume of mercury displaced was recorded. Paws were uniformly dipped into the mercury up to the beginning of the hairline. A venous pressure transducer, coupled to an chart recorder, was employed to measure the small volumes of mercury displaced. Each group measurement consists of the average of four rats, each with three separate measurements.

[4] = system: Mustard Oil-Induced Mouse Ear Edema; assay: Mustard oil-induced mouse ear edema; format: in vivo; settings: 30 minutes prior to mustard oil, ear weight 30 minutes after, male CD-1 mice
Description: Charles River male CD-1 mice weighing 30-60 grams were divided into randomized groups. They were dosed i.p. for 30 minutes prior or orally 1 hour prior to application of 20 ul of mustard oil (10% isothiocyanate in acetone) to the right ear. After 30 minutes the mice were sacrificed and an 8 millimeter diameter circular punch biopsy of each ear was obtained and weighed. The difference between the left (control) and right (treated) ear weights were expressed as percent increase.

[5] = system: Rat PMNL; assay: Superoxide anion (SOA) production by stimulated PMNL; format: cell-based
Description: as §1
Aliquots (50 µl) of a rat PMNL suspension (2 x 10⁷ cells/mL in HBSS) were incubated with 50 µl of HBSS containing vehicle (0.3% DMSO) or compound for 30 minutes at 37°C as above. One hundred microliters of buffer containing 5.98 mg/mL of cytochrome C (Sigma Type III) and 0.1 mg/mL catalase, plus the compounds where appropriate, were then added to each sample. A blank for spectrophotometric measurement, containing unstimulated cells in the presence of cytochrome C, catalase and SOD, was also prepared. […] Aliquots (200 µl) of supernatant were then transferred to a second, flat-well microtiter plate and measured spectrophotometrically at 550 nm. […]

SMILES: O=C(C#Cc1ccc(OCc2ccccc2)cc1)c1ccccc1 [MDL 101,097, 1-phenyl-3-[(4-benzyloxy)phenyl]-2-propyne-1-one]
effect on fMLP-induced intracellular calcium changes [1]: selective concentration-dependent suppression of the second wave of intracellular calcium changes

inhibition of release of myeloperoxidase [2]: dose dependent inhibition
SMILES: CN(C)c1ccc(C(=O)C#Cc2ccncc2)cc1 [MDL 102,175, 1-(4-dimethylaminophenyl)-3-(4-pyridinyl)-2-propynel-1-one]

SMILES: COc1ccc(COc2cccc(C#CC(=O)c3ccccc3)c2)cc1 [MDL 100,225, 1-phenyl-3-[3-(4-methoxybenzyloxy)phenyl]-2-propyne-1-one]
%Inhibition [3]: 24.3% ± 10.3%
%Inhibition ([4]; 10 mg/Kg i.p.): 25.3 ± 17.8%
%Inhibition ([4]; 30 mg/Kg i.p.): 33.4 ± 14.6%
%Inhibition ([4]; 100 mg/Kg i.p.): 60.9 ± 11.7%

SMILES: O=C(C#Cc1ccncc1)c1ccccc1 [MDL 101,098, 1-phenyl-3-(4-pyridinyl)-2-propyne-1-one]
inhibition of superoxide anion production ([5]; PMA and OZ stimulation): inhibited in a dose dependent fashion
inhibition at 1 µM ([5]; Rattus norvegicus, PMNL, inhibition of superoxide anion production, PMA, CONC 1 uM): -20.7%
